Activity calls are given as the source filed them. No cut-off for these calls is given here.
Experiments:
[1] = test system: H5N1 subtype; assay: Antiviral activity against pseudotyped Influenza A virus H5N1 (Goose/Qinghai/59/05) infected in human A549 cells assessed as inhibition of viral replication at 12.5 uM incubated for 48 hrs by luciferase reporter gene assay relative to control; assay type: functional; details: Goose/Qinghai/59/05, A549, 48 h
[2] = test system: H5N1 subtype; assay: Antiviral activity against pseudotyped Influenza A virus H5N1 (Goose/Qinghai/59/05) infected in human A549 cells assessed as inhibition of viral replication at incubated for 48 hrs by luciferase reporter gene assay; assay type: functional, organism-based; details: Goose/Qinghai/59/05, A549, 48 h
[3] = test system: Influenza A virus; assay: Antiviral activity against Influenza A virus (A/Puerto Rico/8/1934(H1N1)) infected in MDCK cells incubated for 1 hr and measured after 36 hrs by PR8-PB2 Gaussia luciferase reporter gene assay; assay type: functional, organism-based
[4] = Selectivity index, ratio of CC50 for MDCK cells to EC50 for antiviral activity against Influenza A virus (A/Puerto Rico/8/1934(H1N1)) infected in MDCK cells by PR8-PB2 Gaussia luciferase reporter gene assay; assay type: toxicity, cell-based; details: dog, read-out: Ratio CC50/EC50
[5] = Half life in BALB/c mouse plasma at 5 mg/kg, iv; assay type: ADME, organism-based
[6] = Cmax in BALB/c mouse liver at 50 mg/kg, po; assay type: ADME, organism-based; parameters: dose 50 mg/kg, route oral
[7] = Cmax in BALB/c mouse plasma at 5 mg/kg, iv; assay type: ADME, organism-based; parameters: dose 5 mg/kg, route intravenous
[8] = test system: Influenza A virus; assay: Antiviral activity against Influenza A virus (A/Puerto Rico/8/1934(H1N1)) infected in MDCK cells incubated for 1 hr and measured after 36 hrs by PR8-NS1 Gaussia luciferase reporter gene assay; assay type: functional, organism-based
[9] = Stability in human liver microsomes assessed as compound remaining incubated for 60 mins in presence of NADPH; assay type: ADME, Microsome; details: read-out: Stability
[10] = Bioavailability in BALB/c mouse plasma at 5 mg/kg, iv; assay type: ADME, organism-based; details: in vivo
[11] = Ratio of Cmax in BALB/c mouse liver at 50 mg/kg, po to EC50 for antiviral activity against Influenza A virus (A/Puerto Rico/8/1934(H1N1)) infected in MDCK cells by PR8-PB2 Gaussia luciferase reporter gene assay; assay type: ADME, organism-based; details: in vivo
[12] = AUC (0 to 8 hrs) in BALB/c mouse liver at 10 mg/kg, ip; assay type: ADME, organism-based; parameters: dose 10 mg/kg, time < 8 hr, route intraperitoneal; details: in vivo
[13] = Tmax in BALB/c mouse plasma at 5 mg/kg, iv; assay type: ADME, organism-based
[14] = target: CYP2C9 (Homo sapiens, UniProt P11712); assay: Inhibition of human CYP2C9; assay type: ADME
[15] = target: CYP3A4 (Homo sapiens, UniProt P08684); assay: Inhibition of human CYP3A4; assay type: ADME
[16] = AUC (0 to 8 hrs) in BALB/c mouse plasma at 50 mg/kg, po; assay type: ADME, organism-based; parameters: time < 8 hr, dose 50 mg/kg, route oral; details: in vivo
[17] = Cmax in BALB/c mouse plasma at 50 mg/kg, po; assay type: ADME, organism-based; parameters: dose 50 mg/kg, route oral
[18] = test system: Influenza A virus; assay: Antiviral activity against Influenza A virus (A/Puerto Rico/8/1934(H1N1)) infected in human A549 cells assessed as decrease in viral titer at 1 uM by standard plaque assay; assay type: functional, organism-based
[19] = test system: H5N1 subtype; assay: Antiviral activity against Influenza A virus (A/Viet Nam/1203/2004(H5N1)) infected in human A549 cells assessed as decrease in viral titer at 1 uM by standard plaque assay; assay type: functional, organism-based
[20] = AUC (0 to 8 hrs) in BALB/c mouse liver at 50 mg/kg, po; assay type: ADME, organism-based; parameters: time < 8 hr, dose 50 mg/kg, route oral; details: in vivo
[21] = AUC (0 to 8 hrs) in BALB/c mouse plasma at 5 mg/kg, iv; assay type: ADME, organism-based; parameters: time < 8 hr, dose 5 mg/kg, route intravenous; details: in vivo
[22] = test system: Influenza A virus; assay: Antiviral activity against Influenza A virus (A/Puerto Rico/8/1934(H1N1)) infected in MDCK cells incubated for 1 hr and measured after 36 hrs in presence of 156 nM Oseltamivir carboxylate by PR8-NS1 Gaussia luciferase reporter gene assay; assay type: functional, organism-based
[23] = Stability in mouse liver microsomes assessed as compound remaining incubated for 60 mins in presence of NADPH; assay type: ADME, Microsome; details: read-out: Stability
[24] = Cmax in BALB/c mouse liver at 10 mg/kg, ip; assay type: ADME, organism-based; parameters: dose 10 mg/kg, route intraperitoneal
[25] = Cmax in BALB/c mouse plasma at 10 mg/kg, ip; assay type: ADME, organism-based; parameters: dose 10 mg/kg, route intraperitoneal
[26] = AUC (0 to 8 hrs) in BALB/c mouse plasma at 10 mg/kg, ip; assay type: ADME, organism-based; parameters: time < 8 hr, dose 10 mg/kg, route intraperitoneal; details: in vivo
[27] = test system: H5N1 subtype; assay: Antiviral activity against Influenza A virus (A/Viet Nam/1203/2004(H5N1)) infected in human A549 cells assessed as decrease in viral titer at 20 uM by standard plaque assay; assay type: functional

CYP2C9, sequence (P11712 whole entry): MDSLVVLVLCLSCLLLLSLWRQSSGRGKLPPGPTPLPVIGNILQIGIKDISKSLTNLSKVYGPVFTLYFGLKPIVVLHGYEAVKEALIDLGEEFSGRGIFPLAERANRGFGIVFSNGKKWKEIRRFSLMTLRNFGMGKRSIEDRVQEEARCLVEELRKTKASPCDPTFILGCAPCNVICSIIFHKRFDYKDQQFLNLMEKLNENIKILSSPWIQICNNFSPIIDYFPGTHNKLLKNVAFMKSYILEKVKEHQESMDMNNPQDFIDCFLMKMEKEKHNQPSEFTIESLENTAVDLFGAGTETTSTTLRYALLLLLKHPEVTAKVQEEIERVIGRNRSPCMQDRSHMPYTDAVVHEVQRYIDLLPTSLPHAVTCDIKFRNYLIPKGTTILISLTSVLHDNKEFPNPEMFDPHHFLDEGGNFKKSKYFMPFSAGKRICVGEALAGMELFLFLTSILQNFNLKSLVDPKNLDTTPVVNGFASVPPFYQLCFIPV
CYP3A4, sequence (P08684 whole entry): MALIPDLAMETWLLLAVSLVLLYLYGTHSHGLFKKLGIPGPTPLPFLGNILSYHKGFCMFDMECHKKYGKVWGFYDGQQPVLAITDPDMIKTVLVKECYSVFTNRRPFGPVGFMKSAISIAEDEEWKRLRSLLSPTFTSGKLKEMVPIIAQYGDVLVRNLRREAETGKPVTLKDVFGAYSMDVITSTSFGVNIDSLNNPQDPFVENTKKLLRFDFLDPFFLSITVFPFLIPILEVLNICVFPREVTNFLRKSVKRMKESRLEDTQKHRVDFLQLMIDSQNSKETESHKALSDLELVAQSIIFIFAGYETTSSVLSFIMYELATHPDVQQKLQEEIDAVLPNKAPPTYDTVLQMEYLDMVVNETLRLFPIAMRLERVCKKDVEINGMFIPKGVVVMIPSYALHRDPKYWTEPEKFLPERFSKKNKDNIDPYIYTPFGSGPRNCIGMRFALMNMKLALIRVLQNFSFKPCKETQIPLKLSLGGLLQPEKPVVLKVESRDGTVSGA

## CC(C)N1CCC(NC(=O)c2ncccc2Cl)CC1
[1]
  inhibition at 12.5 µM: 40%

## CC(C)CN1CCC(NC(=O)c2ccc(C(F)(F)F)cc2Cl)CC1
[1]
  inhibition at 12.5 µM: 73%

## CC(C)N1CCN(C(=O)c2c(Cl)cccc2Cl)CC1
[1]
  inhibition at 12.5 µM: 4%

## CC(C)N1CC[C@H](NC(=O)c2ccc(C(F)(F)F)cc2Cl)[C@@H](F)C1
[2]
  EC50: 1160 nM
[3]
  EC50: 324 nM
[1]
  inhibition at 12.5 µM: 93%

## O=C(NC1CCN(C2COC2)CC1)c1c(Cl)cccc1Cl
[1]
  inhibition at 12.5 µM: 7%

## O=C(NC1CCN(C2CC2)CC1)c1c(Cl)cccc1Cl
[1]
  inhibition at 12.5 µM: 33%

## CC(C)(C)N1CCC(NC(=O)c2ccc(C(F)(F)F)cc2Cl)CC1
[4]
  selectivity ratio: > 100
[5]
  half-life: 8.84 h
[6]
  Cmax: 70400 ng/g
[7]
  Cmax: 846 ng/g
[8]
  EC30: 134 nM
  EC40: 160 nM
  EC50: 187 nM
  EC60: 219 nM
  EC70: 260 nM
  EC80: 321 nM
  EC90: 439 nM
[9]
  remaining at 1 h: 97%
[10]
  F: 145%
[2]
  EC50: 240 nM
[11]
  Ratio: 100
[12]
  AUC: 66400 ng·h/g
[13]
  Tmax: 1.8 min
[14]
  IC50: > 100000 nM
[15]
  IC50: > 100000 nM
[16]
  AUC: 23705 ng·h/g
[17]
  Cmax: 7640 ng/g
[18]
  inhibition: Active
[19]
  inhibition: Active
[20]
  AUC: 292000 ng·h/g
[21]
  AUC: 3400 ng·h/g
[3]
  EC50: 72 nM
[22]
  EC30: 35 nM
  EC40: 42 nM
  EC50: 49 nM
  EC60: 57 nM
  EC70: 68 nM
  EC80: 83 nM
  EC90: 114 nM
[23]
  remaining at 1 h: 94%
[24]
  Cmax: 24900 ng/g
[25]
  Cmax: 1140 ng/g
[26]
  AUC: 3282 ng·h/g
[1]
  inhibition at 12.5 µM: 99%
[27]
  inhibition at 20 µM: 100%

## CC(C)N1CCC(NC(=O)c2ccc(C(F)(F)F)cc2Cl)CC1
[2]
  EC50: 360 nM
[18]
  inhibition: Active
[19]
  inhibition: Active
[3]
  EC50: 380 nM
[1]
  inhibition at 12.5 µM: 99%
[27]
  inhibition at 20 µM: 100%

## CC(C)N1CC[C@@H](NC(=O)c2ccc(C(F)(F)F)cc2Cl)[C@@H](F)C1
[2]
  EC50: 2930 nM
[3]
  EC50: 989 nM
[1]
  inhibition at 12.5 µM: 87%

## CC(C)N1CCC(NC(=O)c2c(Cl)cccc2Cl)CC1
[2]
  EC50: 3040 nM
[18]
  inhibition: Active
[19]
  inhibition: Active
[3]
  EC50: 272 nM
[1]
  inhibition at 12.5 µM: 90%
[27]
  inhibition at 20 µM: 100%

## CC(C)N1CCCC(NC(=O)c2c(Cl)cccc2Cl)CC1 (stereo not drawn)
[1]
  inhibition at 12.5 µM: 71%

## CC(C)N1CCC(NC(=O)c2ncc(Cl)cc2Cl)CC1
[1]
  inhibition at 12.5 µM: 39%

## CC(C)N1CCC2(CC1)OCCN2C(=O)c1c(Cl)cccc1Cl
[1]
  inhibition at 12.5 µM: 19%

## CC(C)CN1CCC(NC(=O)c2c(Cl)cccc2Cl)CC1
[2]
  EC50: 2150 nM
[3]
  EC50: 852 nM
[1]
  inhibition at 12.5 µM: 89%

## CC(C)N1CCC(NC(=O)c2c(Cl)cccc2Cl)C1 (stereo not drawn)
[1]
  inhibition at 12.5 µM: 11%

## CC(C)N1CCC(CNC(=O)c2c(Cl)cccc2Cl)CC1
[1]
  inhibition at 12.5 µM: 23%

## CC(C)N1CC[C@H](NC(=O)c2c(Cl)cccc2Cl)[C@@H](F)C1
[2]
  EC50: 1810 nM
[3]
  EC50: 885 nM
[1]
  inhibition at 12.5 µM: 87%

From ChEMBL document CHEMBL4402569
